Where “and” joins values, the source holds several entries; their conditions need not be identical. Identical values can stand only once.
Assays:
PDE4 = assay: Inhibition of PDE4, radioenzymatic phosphodiesterase assay; format: biochemical, bovine
Summary of the method: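 PDE4 partially purified from bovine aortic media by 105,000 g centrifugation and anion-exchange chromatography with an NaCl gradient. Activity measured radioenzymatically: product nucleoside separated from nucleotides by anion exchange and counted by liquid scintillation.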

PDE1 = assay: Selectivity: inhibition of PDE1, radioenzymatic phosphodiesterase assay; format: biochemical, bovine; parameters: PDE1 percentage inhibition at 10 μM: unit: %; settings: Table 4 Selectivity; for PDE1 percentage inhibition at 10 μM: compound at 10 μM
Protocol: (§1) A 3 g segment of bovine aortic media cut into pieces with scissors was homogenized with an ultra-turrax then a potter glass/glass homogenizer in 7 volumes by weight of buffer A containing a protease inhibitor cocktail (20 mM Tris-HCl, 0.25 M saccharose, 2 mM magnesium acetate, 1 mM dithiothreitol, 5 mM EGTA, 2000 U/ml aprotinin, 10 mg/l leupeptin and 10 mg/l soya trypsic inhibitor). The homogenizate was centrifuged at 105,000 g for 1 hour. The supernatant was loaded on a DEAE-Sephacel column (15×1.6 cm) pre-equilibrated with buffer B (buffer A without the saccharose, EGTA and protease inhibitors). The column was washed until there was no detectable absorption at 280 nm, then eluted with a linear gradient of NaCl (0–0.5 M) in buffer B. 3-ml fractions were collected and enzyme activity was determined under the conditions described hereinafter to localize the different enzymes PDE1, PDE3, PDE4 and PDE5, which were aliquoted and frozen at −80° C. (Lugnier et al., Biochem. Phamacol., 35 (1986) 1746–1751). PDE2 was prepared from bovine endothelial cells by the same methods (Lugnier and Schini, Biochem. Pharmacol. 1990, 39; 75–84).
(§2) Cyclic nucleotide phosphodiesterase activity was determined by a radioenzymatic method using tritium-labelled cyclic GMP or AMP (1 μM) as substrate (Lugnier et al., 1986). ^3H-labelled adenosine or guanosine monophosphate formed by hydrolysis of the radiolabelled cyclic nucleotide was then converted to ^3H-labelled adenosine or guanosine in a second reaction with […] in excess. The nucleoside formed was separated from the nucleotides by anion exchange chromatography. Nucleoside radioactivity was determined by liquid scintillation counting. Enzymatic incubations were carried out under conditions allowing no more than 15% hydrolysis of the substrate; each point was performed in duplicate.
(§3) The activity of the compounds was evaluated on other phosphodiesterase isoforms, particularly basal state or calmodulin-activated PDE1 from vascular smooth muscle, basal state or cyclic GMP-activated PDE2 from vascular endothelial cells, PDE3 and PDE5 from vascular smooth muscle.
(§4) The results obtained are presented in Table 4 hereinafter and are expressed as the percentage inhibition of enzymatic activity produced by […] of the tested compound.

PDE2 = target: T1, PDE2 (Bos taurus, UniProt P14099); assay: Selectivity: inhibition of PDE2, radioenzymatic phosphodiesterase assay; format: biochemical, bovine; settings: Table 4 Selectivity; for inhibition at 10 µM: compound at 10 μM, read-out: PDE2 percentage inhibition at 10 μM
T1 construct: PDE2 was prepared from bovine endothelial cells by the same methods; endogenous in cells; host or cells: bovine vascular endothelial cells, DEAE-Sephacel fraction
T1 sequence (P14099 1-921): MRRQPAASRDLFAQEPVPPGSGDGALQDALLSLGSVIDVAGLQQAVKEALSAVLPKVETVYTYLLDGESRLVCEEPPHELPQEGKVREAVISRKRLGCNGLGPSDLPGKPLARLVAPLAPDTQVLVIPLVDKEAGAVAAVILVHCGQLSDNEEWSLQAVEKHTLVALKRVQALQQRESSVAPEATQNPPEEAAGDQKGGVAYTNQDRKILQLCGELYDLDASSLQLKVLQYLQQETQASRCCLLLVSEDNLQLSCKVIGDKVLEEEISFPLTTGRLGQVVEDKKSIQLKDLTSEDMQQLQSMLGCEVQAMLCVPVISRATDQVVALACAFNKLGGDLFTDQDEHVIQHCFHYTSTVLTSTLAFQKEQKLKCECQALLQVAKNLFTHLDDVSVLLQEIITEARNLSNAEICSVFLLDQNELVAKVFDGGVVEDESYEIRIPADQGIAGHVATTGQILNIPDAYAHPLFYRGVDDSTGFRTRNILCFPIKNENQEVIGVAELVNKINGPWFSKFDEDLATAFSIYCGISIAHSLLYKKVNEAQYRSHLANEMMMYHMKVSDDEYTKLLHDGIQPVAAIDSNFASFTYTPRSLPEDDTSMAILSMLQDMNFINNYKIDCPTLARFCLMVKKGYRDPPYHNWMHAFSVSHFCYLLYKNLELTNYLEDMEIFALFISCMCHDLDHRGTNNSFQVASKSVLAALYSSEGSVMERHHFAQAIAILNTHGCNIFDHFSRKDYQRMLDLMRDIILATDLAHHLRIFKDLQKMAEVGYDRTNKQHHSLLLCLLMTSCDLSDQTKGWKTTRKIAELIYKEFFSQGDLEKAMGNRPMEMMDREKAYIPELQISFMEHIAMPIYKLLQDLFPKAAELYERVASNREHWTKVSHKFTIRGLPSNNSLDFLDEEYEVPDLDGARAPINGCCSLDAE
Protocol: as §1, §2, §3, §4

PDE3 = target: T2, PDE3 (Bos taurus, UniProt A0A3Q1M1E8); assay: Selectivity: inhibition of PDE3, radioenzymatic phosphodiesterase assay; format: biochemical, bovine; settings: read-out: PDE3 percentage inhibition at 10 μM
T2 sequence (A0A3Q1M1E8 1-1126): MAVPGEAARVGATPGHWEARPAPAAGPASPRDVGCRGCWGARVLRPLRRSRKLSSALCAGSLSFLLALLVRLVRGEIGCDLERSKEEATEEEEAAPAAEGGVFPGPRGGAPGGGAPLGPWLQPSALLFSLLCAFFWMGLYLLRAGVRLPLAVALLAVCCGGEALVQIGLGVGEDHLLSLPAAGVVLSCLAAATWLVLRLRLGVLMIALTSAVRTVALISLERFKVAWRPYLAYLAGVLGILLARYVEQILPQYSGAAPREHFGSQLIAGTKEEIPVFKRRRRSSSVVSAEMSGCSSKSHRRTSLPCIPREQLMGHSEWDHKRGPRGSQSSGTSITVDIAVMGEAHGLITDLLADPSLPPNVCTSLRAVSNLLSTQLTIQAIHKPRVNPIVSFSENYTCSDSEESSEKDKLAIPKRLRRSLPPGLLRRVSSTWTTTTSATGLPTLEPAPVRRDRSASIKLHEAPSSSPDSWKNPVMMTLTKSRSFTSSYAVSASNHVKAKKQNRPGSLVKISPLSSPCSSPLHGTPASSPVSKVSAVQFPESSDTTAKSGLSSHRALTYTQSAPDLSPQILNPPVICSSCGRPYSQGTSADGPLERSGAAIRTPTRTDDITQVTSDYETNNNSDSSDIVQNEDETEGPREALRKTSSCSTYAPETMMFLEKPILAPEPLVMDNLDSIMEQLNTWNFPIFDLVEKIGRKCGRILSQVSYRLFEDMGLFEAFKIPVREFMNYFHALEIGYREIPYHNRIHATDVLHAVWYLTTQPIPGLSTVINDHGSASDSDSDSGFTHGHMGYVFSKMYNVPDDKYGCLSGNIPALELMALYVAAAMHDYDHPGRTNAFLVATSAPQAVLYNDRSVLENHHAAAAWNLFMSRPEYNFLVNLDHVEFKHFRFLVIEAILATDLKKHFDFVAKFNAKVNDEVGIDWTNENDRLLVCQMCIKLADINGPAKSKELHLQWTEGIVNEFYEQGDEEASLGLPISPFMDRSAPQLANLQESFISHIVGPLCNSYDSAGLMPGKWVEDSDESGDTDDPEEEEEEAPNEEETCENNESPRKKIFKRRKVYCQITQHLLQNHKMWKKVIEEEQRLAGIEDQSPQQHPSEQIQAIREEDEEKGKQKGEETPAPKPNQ
Protocol: as §1, §2, §3, §4

PDE5 = target: T3, PDE5 (Bos taurus, UniProt Q28156); assay: Selectivity: inhibition of PDE5, radioenzymatic phosphodiesterase assay; format: biochemical, bovine; settings: Table 4 Selectivity
T3 construct: localize the different enzymes PDE1, PDE3, PDE4 and PDE5, which were aliquoted and frozen; from tissue; host or cells: bovine aortic media (vascular smooth muscle), DEAE-Sephacel fraction
Protocol: as §1, §2, §3, §4

TNFα = TNFα production by LPS-activated mononuclear cells from venous blood (ELISA); format: cell-based; settings: Homo sapiens
Protocol: Compounds according to the invention were assessed for anti-inflammatory properties on mononuclear cells from venous blood of healthy donors (n=4), by a protocol approved by the Alsace No. 1 Ethics Committee. More specifically, the cells were incubated for 24 hours in 24-well plates in the presence of the test compound, after activation by Salmonella Abortis Equi lipopolysaccharide (LPS) (5 pg/ml) (cf. De Groote et al., Cytokine 4, 1992, 239). After incubation, TNFα concentrations were determined in the culture supernatant by an ELISA method (Antibody Solutions, Half Moon Bay, Calif., USA).

IL1β, IL6 and IL8 = IL1β, IL6 and IL8 secretion by LPS-activated mononuclear cells from venous blood; format: cell-based, human; settings: compound at 1 μM
[1] = Table 2, formula (XXII), 1 μM cyclic AMP
[2] = Table 1, formula (III), 1 μM cyclic AMP
[3] = Table 3, formula (II), 1 μM cyclic AMP

SMILES	IC50 (PDE4; [1])	IC50 (PDE4; Table 4 Selectivity)	PDE1 percentage inhibition at 10 μM (PDE1)	inhibition at 10 µM (PDE2)	inhibition at 10 µM (PDE3)	IC50 (PDE4; [2])	IC50 (PDE1)	IC50 (PDE2)	IC50 (PDE5)	inhibition at 1 µM (TNFα; compound at 1 μM, 24 hours, LPS 5 pg/ml, read-out: inhibition of TNFα production)	IL1β, IL6 and IL8 secretion levels (IL1β, IL6 and IL8)	inhibition at 10 µM (PDE5; compound at 10 μM, read-out: PDE5 percentage inhibition at 10 μM)	IC50 (PDE4; [3])	IC50 (TNFα; read-out: anti-TNFα activity IC50)
CCOc1cc2c(cc1OCC)C(c1ccccc1)=NC(C)C(=O)N2 (stereo not drawn) [XXIIai, 7,8-diethoxy-3-methyl-5-phenyl-1,3-dihydro-2H-1,4-benzodiazepin-2-one]	1700 nM	1700 nM	55%	6%	55%	–	–	–	–	–	–	–	–	–
COc1cc2c(cc1OC)C(c1cc3ccccc3s1)=NN(C)C(=O)C2 [IIIab, 1-(2-benzo[b]thienyl)-7,8-dimethoxy-3-methyl-3,5-dihydro-4H-2,3-benzodiazepin-4-one]	–	300 nM	–	–	–	300 nM	3810 nM	16000 nM	4300 nM	100%	not at all altered	–	–	–
CCOc1cc2c(cc1OCC)C(CC)C(=O)N(C)N=C2c1cc2ccccc2s1 (stereo not drawn) [IIIbb, 1-(2-benzo[b]thienyl)-7,8-diethoxy-5-ethyl-3-methyl-3,5-dihydro-4H-2,3-benzodiazepin-4-one]	–	87 nM	–	25%	–	87 nM	14000 nM	–	5700 nM	–	–	–	–	–
CCOc1cc2c(cc1OC)C(c1ccccc1)=NCC(=O)N2 [XXIIam, 8-ethoxy-7-methoxy-5-phenyl-1,3-dihydro-2H-1,4-benzodiazepin-2-one]	700 nM	700 nM	29%	36%	36%	–	–	–	–	–	–	35%	–	–
CCOc1cc2c(cc1OC)C(c1ccccc1)=NC(Cc1cccc(C(N)=O)c1)C(=O)N2C (stereo not drawn) [IIdh, 3-[(8-ethoxy-7-methoxy-1-methyl-2-oxo-5-phenyl-2,3-dihydro-1H-1,4-benzodiazepin-3-yl)methyl]benzamide]	–	–	–	–	–	–	–	–	–	–	–	–	520 nM	100 to 1000 nM
CCOc1cc2c(cc1OCC)N(CC)C(=O)CN=C2c1ccccc1 [IIbg, 7,8-diethoxy-1-ethyl-5-phenyl-1,3-dihydro-2H-1,4-benzodiazepin-2-one]	–	900 nM	47%	20%	40%	–	–	–	–	–	–	–	900 nM and 1600 nM	–
COc1cc2c(cc1OC)C(c1ccc(-c3ccco3)cc1)=NN(C)C(=O)C2 [IIIav, 1-[4-(2-furyl)phenyl]-7,8-dimethoxy-3-methyl-3,5-dihydro-4H-2,3-benzodiazepin-4-one]	–	900 nM	49%	–	92%	900 nM	–	19000 nM	40000 nM	–	–	–	–	–

From US7250410B2, “Cyclic nucleotide phosphodiesterase inhibitors, preparation and uses thereof” (Via Pharmaceuticals, Inc., priority 2001, dated 2007)
